Measurements published in patent US20190297888A1, “FUNGICIDAL COMPOUNDS AND MIXTURES FOR FUNGAL CONTROL IN CEREALS” (Dow AgroSciences LLC, priority 2016, published 2019).

What was measured:
Type in all cases: in vivo
[1] = system: Zymoseptoria tritici (SEPTTR); assay: Field assessment of Compound I and fluxapyroxad on leaf blotch of wheat (AUDPC % control); conditions: AUDPC-based, 2 field trials
Source text: Treatments consisting of the compound of Formula I and fungicide compound fluxapyroxad against fungal diseases of wheat were applied either using individually or as a two-way mixture of fluxapyroxad with the compound of Formula I. The compound of Formula I was applied with Agnique BP-420 (50% w/w at 0.3% v/v) at 50, 75 and 100 g ai/ha and Imtrex (Fluxapyroxad 62.5 g/L) was applied at 50, 75 and 100 g ai/ha. Commercial standards used in the studies were Adexar (epoxiconazole+fluxapyroxad—125 g/L), applied at 1.2 and 1.6 L pr/ha, and Elatus Era (benzovindiflupyr+prothioconazole—225 g/L), applied at 1.0 L pr/ha.
Fungicidal treatments containing the compound of Formula I and fluxapyroxad, either individually or as a two-way mixture, were assessed against leaf spot of wheat (SEPTTR) in two separate field trials. In the first trial, fungicidal treatments were applied at B32 (curative, 12% infection at application on L4) growth stage of winter wheat (TRZAW, TOBAK variety). The treatments were part of an experimental trial designed as a randomized complete block with four replications and a plot of approximately 2×2 m. Treatments were applied at water volume of 200 L/ha, using a backpack plot sprayer (BCYAIR, FLATFANA nozzle) and pressurized at 220 kPa.
In the second trial, fungicidal treatments were applied at B33-39 (curative, 50% infection at application on L5) growth stages of winter wheat (TRZAW, Consort variety). The treatments were part of an experimental trial designed as a randomized complete block with four replications and a plot of approximately 1.5×14 m. Treatments were applied at water volume of 200 L/ha, using a backpack plot sprayer (BKPCKAIR, Flat fan nozzle) and pressurized at 210 kPa.
Disease severity (percentage of visual diseased foliage on whole plot or leaves) in both field trials was recorded following EPPO PP1/26 guideline prescriptions. Area under the disease progress curve (AUDPC) was calculated for each plot in both trials using the sets of recorded severity data. Relative AUDPC (% control based on AUDPC) was calculated as percent of the nontreated control. Final results for the control of leaf spot of wheat by the compound of Formula I, fluxapyroxad and mixtures are reported as an average of the relative AUDPC calculated over both field trials. Statistical analysis was done according to ANOVA and Tukey's test (p=0.10).

Puccinia hordei (PUCCHD) = assay: Field assessment of Compound I and fluxapyroxad on rust of barley (AUDPC % control); conditions: AUDPC-based, 2 field trials
Experimental: (§1) Commercial standards used in the studies were Proline 275 (275 g ai/L Prothioconazole), applied at 150 g ai/ha, and SiltraXpro (200 g ai/L prothioconazole+60 g ai/[…] bixafen), applied at 195 g ai/ha.
(§2) Fungicidal treatments containing the compound of Formula I and fluxapyroxad, either individually or as a two-way mixture, were assessed against rust of barley (PUCCHD) in two separate field trials. In both trials, fungicidal treatments were applied at B37-39 growth stages of winter barley (Lomeritt variety) under natural infection of barley rust. All treatments were part of an experimental trial designed as a randomized complete block with four replications.
(§3) Disease severity (percentage of visual diseased foliage on whole plot or leaves) in five field trials was recorded following EPPO PP1/26 guideline prescriptions. Area under the disease progress curve (AUDPC) was calculated for each plot in both trials using the sets of recorded severity data. Relative AUDPC (% control based on AUDPC) was calculated as percent of the nontreated control. […] Statistical analysis was done according to ANOVA and Tukey's test (p=0.10).

[2] = system: Pyrenophora teres (PYRNTE); assay: Field assessment of Compound I and fluxapyroxad on net blotch of barley (AUDPC % control); conditions: AUDPC-based, 2 field trials
Experimental: as §1
as §2, with “net blotch” for “rust”, “(PYRNTE)” for “(PUCCHD)”, “B31-37” for “B37-39”, “and sprong barley (HORVW, Lomeritt variety; HORVS, Scarlett” for “(Lomeritt”, “net blotch (protectant tests, 1% infection on leaf 4 and 10% infection on leaf 6 at application).” for “barley rust.”
as §3, with “both” for “five”

[3] = system: Rhyncosporium secalis (RHYNSE); assay: Field assessment of Compound I and fluxapyroxad on leaf scald of barley (AUDPC % control); conditions: AUDPC-based, one field trial
Experimental: as §1
Fungicidal treatments containing the compound of Formula I and fluxapyroxad, either individually or as a two-way mixture, were assessed against scald of barley (RHYNSE) in one field trial. In the trial, fungicidal treatments were applied at B37-39 growth stages of winter barley (HORVW, Maris Otter variety) under natural infection of barley scald (protectant test, approximately 1% infection on leaf 4 at application). All treatments were part of an experimental trial designed as a randomized complete block with four replications.
as §3, with “the” for “five”, “trial” for “trials”, “the trial” for “both trials”

Compound	SEPTTR % Control ([1]; rate 50 g ai/ha) [%]	SEPTTR % Control ([1]; rate 75 g ai/ha) [%]	SEPTTR % Control ([1]; rate 100 g ai/ha) [%]	PUCCHD % Control (Puccinia hordei (PUCCHD); rate 75 g ai/ha) [%]	PUCCHD % Control (Puccinia hordei (PUCCHD); rate 100 g ai/ha) [%]	PUCCHD % Control (Puccinia hordei (PUCCHD); rate 150 g ai/ha) [%]	PYRNTE % Control ([2]; rate 75 g ai/ha) [%]	PYRNTE % Control ([2]; rate 100 g ai/ha) [%]	PYRNTE % Control ([2]; rate 150 g ai/ha) [%]	RHYNSE % Control ([3]; rate 75 g ai/ha) [%]	RHYNSE % Control ([3]; rate 100 g ai/ha) [%]	RHYNSE % Control ([3]; rate 150 g ai/ha) [%]	PUCCHD % Control (Puccinia hordei (PUCCHD); rate 45 g ai/ha) [%]	PUCCHD % Control (Puccinia hordei (PUCCHD); rate 62.5 g ai/ha) [%]	PYRNTE % Control ([2]; rate 45 g ai/ha) [%]	PYRNTE % Control ([2]; rate 62.5 g ai/ha) [%]	RHYNSE % Control ([3]; rate 45 g ai/ha) [%]	RHYNSE % Control ([3]; rate 62.5 g ai/ha) [%]
N#Cc1ccc(Oc2ccc(C(F)(F)C(O)(Cn3ncnc3S)c3ccc(F)cc3F)nc2)cc1 (stereo not drawn) [Compound I, 4-((6-(2-(2,4-difluorophenyl)-1,1-difluoro-2-hydroxy-3-(5-mercapto-1H-1,2,4-triazol-1-yl)propyl)pyridin-3-yl)oxy)benzonitrile]	43.9	50.7	56.6	71.0	75.3	88.8	8.66	23.5	40.8	67.2	61.3	81.1	–	–	–	–	–	–
Cn1cc(C(=O)Nc2ccccc2-c2cc(F)c(F)c(F)c2)c(C(F)F)n1 [Fluxapyroxad, 3-(difluoromethyl)-1-methyl-N-(3′,4′,5′-trifluorobiphenyl-2-yl)pyrazole-4-carboxamide]	47.4	60.9	66.4	–	68.7	–	–	83.2	–	–	95.7	–	49.0	54.5	66.5	73.4	78.7	77.2
